Measured values from patent US10174047B2, “Thienodiazepine derivatives or pharmaceutically acceptable salts thereof, and pharmaceutical composition including the same as an active ingredient” (Industry-University Cooperation Foundation Hanyang …, priority 2015, dated 2019).

Test system: A375P cell line (melanoma)
Assay: Proliferation inhibition activity against A375P cell line (MTT assay)
Assay type: cell-based
Conditions: A375P melanoma cells; for GI50: MTT assay, read-out: A375P (GI50); for effects against A375P: statement in words
Experimental: Measurement of Proliferation Inhibition Activity Against A375P Cell Line (Melanoma)
An A375P cell line purchased from ATCC was cultured in a DMEM medium [containing 10% FBS, 1% penicillin/streptomycin] at 37° C. in the presence of 5% CO2. The cultured A375P cell line was taken using 0.05% trypsin-0.02% EDTA, and seeded into a 96-well plate at a density of 5×10^3 cells per well.
Cell viability was measured using an MTT [3-(4,5-dimethylthiazol-2-yl)-2,5-diphenyltetrazolium bromide] assay (CellTiter 96 Assay, Promega) as follows. 15 μl of dye was placed per well, the cells were cultured for 2 hours, and then treated with 100 μl of a stop solution, and after 24 hours, absorbance was measured. One day after plating, they were treated with compounds. For treatment with compounds, […] of stock was prepared, and serially diluted to one-third in dimethyl sulfoxide (DMSO) to prepare a 12-point test compound plate, and 0.5 μl was added (final concentration DMSO 0.5%).
In the following Tables 1 to 3, in a case of GI50 being 10 to 30 μM, it was indicated as (+), in a case of it being 1 to 10 μM, it was indicated as (++), and in case of being less than 1 μM, it was indicated as (+++).

GI50 [µM]	Compound	effects against A375P
< 1	O=C1CC(c2ccc(NC(=O)c3ccc(-c4ccccc4)cc3)cc2)=Nc2cscc2N1 [Example 5, N-(4-(2-oxo-2,3-dihydro-1H-thieno[3,4-b][1,4]diazepine-4-yl)phenyl)biphenyl-4-carboxamide]	significant effects
10 to 30	Cc1cc(C)cc(C(=O)Nc2ccc(C3=Nc4cscc4NC(=O)C3)cc2)c1 [Example 17, 3,5-dimethyl-N-(4-(2-oxo-2,3-dihydro-1H-thieno[3,4-b][1,4]diazepine-4-yl)phenyl)benzamide]	–
10 to 30	O=C1CC(c2cccc(NC(=O)c3ccc(-c4ccccc4)cc3)c2)=Nc2cscc2N1 [Example 22, N-(3-(2-oxo-2,3-dihydro-1H-thieno[3,4-b][1,4]diazepine-4-yl)phenyl)biphenyl-4-carboxamide]	–
< 1	Cc1cn(-c2cc(C(=O)Nc3ccc(C4=Nc5cscc5NC(=O)C4)cc3)cc(C(F)(F)F)c2)cn1 [Example 2, 3-(4-methyl-1H-imidazol-1-yl)-N-(4-(2-oxo-2,3-dihydro-1H-thieno[3,4-b][1,4]diazepine-4-yl)phenyl)-5-(trifluoromethyl)benzamide]	significant effects
10 to 30	O=C1CC(c2cccc(NC(=O)Nc3ccccc3F)c2)=Nc2cscc2N1 [Example 52, 1-(2-fluorophenyl)-3-(3-(2-oxo-2,3-dihydro-1H-thieno[3,4-b][1,4]diazepine-4-yl)phenyl)urea]	–
10 to 30	O=C1CC(c2cccc(NC(=O)c3cnc4ccccc4c3)c2)=Nc2cscc2N1 [Example 37, N-(3-(2-oxo-2,3-dihydro-1H-thieno[3,4-b][1,4]diazepine-4-yl)phenyl)quinoline-3-carboxamide]	–
10 to 30	O=C1CC(c2ccc(NC(=O)Nc3ccccc3F)cc2)=Nc2cscc2N1 [Example 45, 1-(2-fluorophenyl)-3-(4-(2-oxo-2,3-dihydro-1H-thieno[3,4-b][1,4]diazepine-4-yl)phenyl)urea]	–
< 1	O=C1CC(c2cccc(NC(=O)c3cc(N4CCOCC4)cc(C(F)(F)F)c3)c2)=Nc2cscc2N1 [Example 20, 3-morpholino-N-(3-(2-oxo-2,3-dihydro-1H-thieno[3,4-b][1,4]diazepine-4-yl)phenyl)-5-(trifluoromethyl)benzamide]	significant effects
10 to 30	O=C1CC(c2cccc(NC(=O)c3ccncc3)c2)=Nc2cscc2N1 [Example 27, N-(3-(2-oxo-2,3-dihydro-1H-thieno[3,4-b][1,4]diazepine-4-yl)phenyl)isonicotinamide]	–
< 1	O=C1CC(c2ccc(NC(=O)Nc3ccc(Cl)c(C(F)(F)F)c3)cc2)=Nc2cscc2N1 [Example 39, 1-(4-chloro-3-(trifluoromethyl)phenyl)-3-(4-(2-oxo-2,3-dihydro-1H-thieno[3,4-b][1,4]diazepine-4-yl)phenyl)urea]	significant effects
10 to 30	O=C1CC(c2cccc(NC(=O)Nc3cc(Cl)cc(Cl)c3)c2)=Nc2cscc2N1 [Example 51, 1-(3,5-dichlorophenyl)-3-(3-(2-oxo-2,3-dihydro-1H-thieno[3,4-b][1,4]diazepine-4-yl)phenyl)urea]	–
1 to 10	O=C1CC(c2cccc(NC(=O)c3ccc(N4CCOCC4)c(C(F)(F)F)c3)c2)=Nc2cscc2N1 [Example 21, 4-morpholino-N-(3-(2-oxo-2,3-dihydro-1H-thieno[3,4-b][1,4]diazepine-4-yl)phenyl)-3-(trifluoromethyl)benzamide]	–
10 to 30	O=C1CC(c2cccc(NC(=O)c3ccc(Cl)cc3)c2)=Nc2cscc2N1 [Example 30, 4-chloro-N-(3-(2-oxo-2,3-dihydro-1H-thieno[3,4-b][1,4]diazepine-4-yl)phenyl)benzamide]	–
10 to 30	Cc1c(C)c2c(c(C)c1O)CC[C@](C)(C(=O)Nc1cccc(C3=Nc4cscc4NC(=O)C3)c1)O2 [Example 38, (R)-6-hydroxy-2,5,7,8-tetramethyl-N-(3-(2-oxo-2,3-dihydro-1H-thieno[3,4-b][1,4]diazepine-4-yl)phenyl)chroman-2-carboxamide]	–
